Inconclusive results and toxic doses are left out. Rule as the data show it: active = T/C of 150% or more; inactive = T/C below 125%.
Tested on: L1210 leukemia ip in BDF1 mice, survival T/C
Assay: NCI In Vivo Anticancer Drug Screen. Data for tumor model L1210 Leukemia (intraperitoneal) in B6D2F1 (BDF1) mice
Conditions: endpoint: mean survival time, higher = longer survival
Procedure, shortened: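 Read-out is survival time, reported as the treated-group measurement over the vehicle-control measurement.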

[1] = dose: 100.0 mg/kg/injection, schedule: Q04DX003 (ip), vehicle: Klucel (hydroxypropylcellulose) (HPC)
[2] = dose: 200.0 mg/kg/injection, schedule: Q04DX003 (ip), vehicle: Klucel (hydroxypropylcellulose) (HPC)
[3] = dose: 400.0 mg/kg/injection, schedule: Q04DX003 (ip), vehicle: Klucel (hydroxypropylcellulose) (HPC)
[4] = dose: 100.0 mg/kg/injection, schedule: Q04DX003 (ip), vehicle: saline
[5] = dose: 200.0 mg/kg/injection, schedule: Q04DX003 (ip), vehicle: saline
[6] = dose: 400.0 mg/kg/injection, schedule: Q04DX003 (ip), vehicle: saline
[7] = dose: 100.0 mg/kg/injection, schedule: Q01DX009 (ip), vehicle: saline sonified
[8] = dose: 100.0 mg/kg/injection, schedule: Q04DX003 (ip), vehicle: saline with Tween-80
[9] = dose: 200.0 mg/kg/injection, schedule: Q01DX009 (ip), vehicle: saline sonified
[10] = dose: 200.0 mg/kg/injection, schedule: Q04DX003 (ip), vehicle: saline with Tween-80
[11] = dose: 400.0 mg/kg/injection, schedule: Q04DX003 (ip), vehicle: saline with Tween-80
[12] = dose: 100.0 mg/kg/injection, schedule: Q01DX001 (ip), vehicle: saline
[13] = dose: 200.0 mg/kg/injection, schedule: Q01DX001 (ip), vehicle: saline
[14] = dose: 400.0 mg/kg/injection, schedule: Q01DX001 (ip), vehicle: saline
[15] = dose: 100.0 mg/kg/injection, schedule: Q01DX009 (ip), vehicle: Klucel (hydroxypropylcellulose) (HPC)
[16] = dose: 200.0 mg/kg/injection, schedule: Q01DX009 (ip), vehicle: Klucel (hydroxypropylcellulose) (HPC)
[17] = dose: 400.0 mg/kg/injection, schedule: Q01DX009 (ip), vehicle: Klucel (hydroxypropylcellulose) (HPC)
[18] = dose: 100.0 mg/kg/injection, schedule: Q01DX001 (ip), vehicle: carboxymethylcellulose (CMC)
[19] = dose: 200.0 mg/kg/injection, schedule: Q01DX001 (ip), vehicle: carboxymethylcellulose (CMC)
[20] = dose: 400.0 mg/kg/injection, schedule: Q01DX001 (ip), vehicle: carboxymethylcellulose (CMC)
[21] = dose: 25.0 mg/kg/injection, schedule: Q01DX009 (ip), vehicle: saline with Tween-80
[22] = dose: 100.0 mg/kg/injection, schedule: Q01DX009 (ip), vehicle: saline with Tween-80
[23] = dose: 200.0 mg/kg/injection, schedule: Q01DX009 (ip), vehicle: saline with Tween-80
[24] = dose: 400.0 mg/kg/injection, schedule: Q01DX009 (ip), vehicle: saline with Tween-80

Measured: T/C

O=C(c1ccc(O)cc1)c1c[nH]c2c(O)ccc(O)c12
inactive: dose: 25.0 mg/kg/injection, schedule: Q04DX002 (ip), vehicle: saline + alcohol 98 % of control | dose: 50.0 mg/kg/injection, schedule: Q04DX002 (ip), vehicle: saline + alcohol 91 % of control

N#Cc1ccccc1NC(=O)N(CCCl)N=O
inactive: dose: 2.0 mg/kg/injection, schedule: Q01DX001 (ip), vehicle: carboxymethylcellulose (CMC) 119 % of control | dose: 13.0 mg/kg/injection, schedule: Q01DX009 (ip), vehicle: carboxymethylcellulose (CMC) 124 % of control | dose: 13.3 mg/kg/injection, schedule: Q01DX001 (ip), vehicle: carboxymethylcellulose (CMC) 120 % of control | dose: 20.0 mg/kg/injection, schedule: Q01DX009 (ip), vehicle: carboxymethylcellulose (CMC) 105 % of control | dose: 30.0 mg/kg/injection, schedule: Q01DX009 (ip), vehicle: carboxymethylcellulose (CMC) 108 % of control

Cn1cnc([N+](=O)[O-])c1[Se]c1ncnc2c1ccn2C1OC(CO)C(O)C1O (stereo not given)
inactive: dose: 6.25 mg/kg/injection, schedule: Q01DX009 (ip), vehicle: saline 102 % of control | dose: 12.5 mg/kg/injection, schedule: Q01DX009 (ip), vehicle: saline 105 % of control | dose: 25.0 mg/kg/injection, schedule: Q01DX009 (ip), vehicle: saline 97 % of control

O=C(O)c1cccc(N=Cc2ccc3c(c2)CCC3)c1
inactive: [1] 94 % of control | [2] 94 % of control | [3] 95 % of control

O=C(/C=C/C(=O)NCc1ccccc1)NCc1ccccc1
inactive: [4] 100 % of control | [5] 103 % of control | [6] 100 % of control

CCCCCCCCCCCCCCCCCC(=O)OCCCCCCCCCCCCC
inactive: [7] 88 % of control | [8] 100 % of control | [9] 95 % of control | [10] 92 % of control | dose: 400.0 mg/kg/injection, schedule: Q01DX009 (ip), vehicle: saline sonified 91 % of control | [11] 86 % of control

CCOC(=N)c1cc([N+](=O)[O-])cc([N+](=O)[O-])c1
inactive: [12] 102 % of control | [13] 104 % of control | [14] 102 % of control

COc1ccc(C)cc1NC(C)=O
inactive: [12] 98 % of control | [13] 100 % of control | [14] 98 % of control

CNNC(=O)Cc1ccccc1
inactive: dose: 100.0 mg/kg/injection, schedule: Q01DX001 (ip), vehicle: other 92 % of control | dose: 200.0 mg/kg/injection, schedule: Q01DX001 (ip), vehicle: other 108 % of control | dose: 400.0 mg/kg/injection, schedule: Q01DX001 (ip), vehicle: other 108 % of control

CC(=O)Oc1c(OC(C)=O)c(-c2c(C)cc(C)c(Br)c2C)c(OC(C)=O)c(OC(C)=O)c1-c1c(C)cc(C)c(Br)c1C
inactive: [15] 103 % of control | [16] 97 % of control | [17] 103 % of control

Cc1ccc(S(=O)(=O)CCN2CCN(C)CC2)cc1
inactive: [12] 100 % of control | [13] 94 % of control

CC(N)C12CC3CC(CC(C3)C1)C2 (stereo not given)
inactive: dose: 75.0 mg/kg/injection, schedule: Q01DX009 (ip), vehicle: saline 94 % of control

SC1c2cc(Cl)ccc2-c2c(Cl)cc(Cl)cc21 (stereo not given)
inactive: [18] 93 % of control | [19] 98 % of control | [20] 117 % of control

CC(C)CC(=O)c1ccccc1
inactive: dose: 50.0 mg/kg/injection, schedule: Q04DX002 (ip), vehicle: saline 104 % of control | dose: 100.0 mg/kg/injection, schedule: Q04DX002 (ip), vehicle: saline 97 % of control | dose: 200.0 mg/kg/injection, schedule: Q04DX002 (ip), vehicle: saline 111 % of control

OC1C=NC(N2CCN(c3ccccc3)CC2)=Cc2ccccc21 (stereo not given)
inactive: [8] 97 % of control | [10] 95 % of control | [11] 92 % of control

N#CSCc1ccc(Cl)cc1
inactive: [21] 92 % of control

CCOC(=O)C(=O)c1c[nH]c2ccccc12
inactive: [8] 97 % of control | [10] 97 % of control | [11] 95 % of control

O=Cc1cccc(CC(O)(C(F)(F)F)C(F)(F)F)n1
inactive: [21] 101 % of control | dose: 50.0 mg/kg/injection, schedule: Q01DX009 (ip), vehicle: saline with Tween-80 101 % of control | dose: 50.0 mg/kg/injection, schedule: Q04DX003 (ip), vehicle: saline with Tween-80 91 % of control | [8] 91 % of control | [10] 104 % of control

COc1nc(Cl)cc2c1ncn2C1OC(CO)C(O)C1O (stereo not given)
inactive: dose: 100.0 mg/kg/injection, schedule: Q01DX005 (ip), vehicle: saline 111 % of control | dose: 200.0 mg/kg/injection, schedule: Q01DX005 (ip), vehicle: saline 108 % of control

Cc1ccc(S(=O)(=O)NC(=O)NCCC(C)C)cc1
inactive: [8] 102 % of control | [10] 100 % of control | [11] 96 % of control

Nc1cccc2cc3ccccc3[n+]([O-])c12
inactive: [22] 103 % of control | [23] 103 % of control | [24] 93 % of control

CCC1=C/C(=C/c2cc(Cl)ccc2O)C(=O)S1
inactive: dose: 100.0 mg/kg/injection, schedule: Q01DX001 (ip), vehicle: saline with Tween-80 91 % of control | dose: 200.0 mg/kg/injection, schedule: Q01DX001 (ip), vehicle: saline with Tween-80 87 % of control | dose: 400.0 mg/kg/injection, schedule: Q01DX001 (ip), vehicle: saline with Tween-80 94 % of control

CSc1cccc(NC2=NCCO2)c1
inactive: dose: 50.0 mg/kg/injection, schedule: Q04DX002 (ip), vehicle: saline with Tween-80 103 % of control | dose: 100.0 mg/kg/injection, schedule: Q04DX002 (ip), vehicle: saline with Tween-80 98 % of control | dose: 200.0 mg/kg/injection, schedule: Q04DX002 (ip), vehicle: saline with Tween-80 88 % of control | dose: 400.0 mg/kg/injection, schedule: Q04DX002 (ip), vehicle: saline with Tween-80 95 % of control

CSC(c1ccccc1Cl)=[N+]1CCCCC1
inactive: [1] 104 % of control | [2] 88 % of control | [3] 93 % of control

O=C1c2cc(Br)ccc2-c2cc(Br)c(NC(=O)C(F)(F)F)c(Br)c21
inactive: [18] 92 % of control | [19] 108 % of control | [20] 99 % of control

CCCOS(C)(=O)=O
inactive: [12] 100 % of control | [13] 100 % of control | [14] 100 % of control

S=C(S)N1CCOCC1
inactive: dose: 50.0 mg/kg/injection, schedule: Q01DX009 (ip), vehicle: saline sonified 104 % of control | [12] 105 % of control | [7] 100 % of control | dose: 100.0 mg/kg/injection, schedule: Q01DX009 (ip), vehicle: saline 98 % of control | [4] 93 % of control | [13] 97 % of control | [9] 94 % of control | dose: 200.0 mg/kg/injection, schedule: Q01DX009 (ip), vehicle: saline 106 % of control | [5] 97 % of control | dose: 400.0 mg/kg/injection, schedule: Q01DX009 (ip), vehicle: saline 96 % of control | [6] 95 % of control

CCOc1ccc(/C=C2\N=C(c3ccc([N+](=O)[O-])cc3)OC2=O)cc1
inactive: [15] 97 % of control | [16] 87 % of control | [17] 94 % of control

O=C(O)CNc1cc(S(=O)(=O)O)cc2cc(S(=O)(=O)O)cc(O)c12
inactive: [12] 103 % of control | [4] 103 % of control | [13] 107 % of control | [5] 90 % of control | [14] 96 % of control | [6] 92 % of control

Fc1cc(F)c(F)c(Oc2c(F)c(F)c(-c3c(F)c(F)c(F)c(F)c3F)c(F)c2F)c1F
inactive: [22] 104 % of control | [23] 90 % of control | [24] 101 % of control

CN(C)c1ccc(-c2cc(C(=O)O)c3cc(I)ccc3n2)c(Cl)c1
inactive: dose: 75.0 mg/kg/injection, schedule: Q01DX001 (ip), vehicle: saline 88 % of control | dose: 150.0 mg/kg/injection, schedule: Q01DX001 (ip), vehicle: saline 86 % of control | dose: 300.0 mg/kg/injection, schedule: Q01DX001 (ip), vehicle: saline 91 % of control
